Experimental data from patent US9334246B2, “Substituted triazines for malaria treatment and chemoprophylaxis” (The United States of America, as represented by the …, priority 2013, dated 2016).

Experiments:
[1] = molecular target: hERG potassium ion channel (Homo sapiens, UniProt Q12809); assay: hERG patch clamp assay (% inhibition at 10 μM); conditions: for hERG (% inhibition): 10 μM
P. falciparum W2 = assay: Malaria SYBR Green Fluorescence Assay, W2 strain; type: cell-based, Plasmodium falciparum; conditions: for W2: SYBR Green Assay
P. falciparum D6 = assay: Malaria SYBR Green Fluorescence Assay, D6 strain; type: cell-based, Plasmodium falciparum; conditions: for D6: SYBR Green Assay
P. falciparum C235 = assay: Malaria SYBR Green Fluorescence Assay, C235 strain; type: cell-based, Plasmodium falciparum; conditions: for C235: SYBR Green Assay
P. berghei = assay: Thompson Test, in vivo mouse malaria assay; set-up: species or system mice (ICR strain)
[2] = % inhibition at 10 μM, patch clamp
[3] = (160 × 3): 160 mg/kg for 3 days

Chain of hERG potassium ion channel (Q12809 whole entry): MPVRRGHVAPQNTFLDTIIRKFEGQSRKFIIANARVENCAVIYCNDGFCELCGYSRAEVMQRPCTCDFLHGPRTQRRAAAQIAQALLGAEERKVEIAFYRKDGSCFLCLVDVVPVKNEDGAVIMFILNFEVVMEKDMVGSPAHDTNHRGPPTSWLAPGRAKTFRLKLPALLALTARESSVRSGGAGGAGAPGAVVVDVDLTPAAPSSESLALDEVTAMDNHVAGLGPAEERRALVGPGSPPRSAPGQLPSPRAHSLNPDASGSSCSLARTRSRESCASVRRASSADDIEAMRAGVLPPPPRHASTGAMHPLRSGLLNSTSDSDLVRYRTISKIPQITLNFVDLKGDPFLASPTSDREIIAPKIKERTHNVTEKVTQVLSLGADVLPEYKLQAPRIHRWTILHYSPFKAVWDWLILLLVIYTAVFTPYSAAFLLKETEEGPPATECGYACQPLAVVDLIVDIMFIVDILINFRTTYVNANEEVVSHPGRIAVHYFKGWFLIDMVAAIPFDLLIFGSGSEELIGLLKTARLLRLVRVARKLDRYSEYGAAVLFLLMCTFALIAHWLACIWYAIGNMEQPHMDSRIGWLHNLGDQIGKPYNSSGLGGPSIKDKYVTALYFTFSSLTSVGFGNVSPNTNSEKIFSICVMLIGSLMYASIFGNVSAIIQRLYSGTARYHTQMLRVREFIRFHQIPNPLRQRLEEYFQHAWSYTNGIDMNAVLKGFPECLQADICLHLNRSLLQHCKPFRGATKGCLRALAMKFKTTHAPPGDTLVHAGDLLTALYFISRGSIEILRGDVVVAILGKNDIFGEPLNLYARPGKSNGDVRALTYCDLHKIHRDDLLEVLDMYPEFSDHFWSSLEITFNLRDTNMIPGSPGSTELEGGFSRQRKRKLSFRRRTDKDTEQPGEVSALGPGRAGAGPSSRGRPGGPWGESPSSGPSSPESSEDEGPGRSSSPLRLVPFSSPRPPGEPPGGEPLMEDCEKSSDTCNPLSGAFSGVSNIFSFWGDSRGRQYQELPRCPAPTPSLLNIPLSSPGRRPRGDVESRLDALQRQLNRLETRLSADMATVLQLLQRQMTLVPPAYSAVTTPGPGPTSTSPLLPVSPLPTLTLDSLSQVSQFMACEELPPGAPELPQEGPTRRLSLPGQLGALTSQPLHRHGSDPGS

| Compound | hERG [1, 2] | W2 (P. falciparum W2) | D6 (P. falciparum D6) | C235 (P. falciparum C235) | In vivo Results Thompson Assay (n/N Cures or Suppressive) (P. berghei; (80 × 3): 80 mg/kg for 3 days) | In vivo Results Thompson Assay (n/N Cures or Suppressive) (P. berghei; [3]) | In vivo Results Thompson Assay (n/N Cures or Suppressive) (P. berghei; (40 × 3): 40 mg/kg for 3 days) | hERG (% inhibition) [1] | W2 (SYBR Green Assay IC50) (P. falciparum W2) | D6 (SYBR Green Assay IC50) (P. falciparum D6) | C235 (SYBR Green Assay IC50) (P. falciparum C235) | hERG ([1]; hERG activity as % inhibition) |
| --- | --- | --- | --- | --- | --- | --- | --- | --- | --- | --- | --- | --- |
| ClC(Cl)(Cl)c1ccc(-c2nc(NCCN3CCCC3)nc(C(Cl)(Cl)Cl)n2)cc1 [Compound 57] | 25% | 6 ng/mL | 10 ng/mL | 22 ng/mL | Suppressive | 5/5 | – | – | – | – | – | – |
| CN1CCN(c2nc(-c3ccc([S+](C)[O-])cc3)nc(C(Cl)(Cl)Cl)n2)CC1 (centres unmarked) [Compound 72] | 41% | 33 ng/mL | 33 ng/mL | 27 ng/mL | (80 × 3) Suppressive | – | – | – | – | – | – | – |
| CCN1CCCC(Nc2nc(-c3ccc(C(C)(C)C)cc3)nc(C(Cl)(Cl)Cl)n2)C1 (centres unmarked) [Compound 79] | 51% | 25 ng/mL | 26 ng/mL | 36 ng/mL | (80 × 3) Suppressive | – | – | – | – | – | – | – |
| CS(=O)(=O)c1ccc(-c2nc(N3CCCNCC3)nc(C(Cl)(Cl)Cl)n2)cc1 [Compound 96] | 65% | 51 ng/mL | 70 ng/mL | 96 ng/mL | (80 × 3) Suppressive | – | – | – | – | – | – | – |
| CC(C)(N)CNc1nc(-c2ccc(S(C)(=O)=O)cc2)nc(C(Cl)(Cl)Cl)n1 [Compound 97] | 35% | 20 ng/mL | 26 ng/mL | 33 ng/mL | (80 × 3) Suppressive; | (160 × 3) Suppressive | – | – | – | – | – | – |
| CN1CCN(c2nc(-c3ccc(C(Cl)(Cl)Cl)cc3)nc(C(Cl)(Cl)Cl)n2)CC1 [Compound 99] | 16% | 12 ng/mL | 59 ng/mL | 21 ng/mL | (80 × 3) Suppressive | – | – | – | – | – | – | – |
| Cc1ccc(-c2nc(N3CCCNCC3)nc(C(Cl)(Cl)Cl)n2)cc1 [Compound 102] | 47% | 44 ng/mL | 58 ng/mL | 48 ng/mL | (80 × 3) Suppressive | – | – | – | – | – | – | – |
| FC(F)(F)c1cccc(-c2nc(N3CCCNCC3)nc(C(Cl)(Cl)Cl)n2)c1 [Compound 108] | 28% | 47 ng/mL | 70 ng/mL | 82 ng/mL | (80 × 3) Suppressive | – | – | – | – | – | – | – |
| CN1CCCN(c2nc(-c3ccc(Cl)c(Cl)c3)nc(C(Cl)(Cl)Cl)n2)CC1 [Compound 113] | 64% | 23 ng/mL | 33 ng/mL | 35 ng/mL | Suppressive | 4/5 | – | – | – | – | – | – |
| OCCN1CCN(c2nc(-c3ccc(C(Cl)(Cl)Cl)cc3)nc(C(Cl)(Cl)Cl)n2)CC1 [Compound 119] | 18% | 12 ng/mL | 29 ng/mL | 46 ng/mL | 4/5 | – | 1/5 | – | – | – | – | – |
| COc1cccc(-c2nc(NC3CCN(C)CC3)nc(C(Cl)(Cl)Cl)n2)c1 [Compound 193] | 93% | 22 ng/mL | 29 ng/mL | 17 ng/mL | (80 × 3) Suppressive | – | – | – | – | – | – | – |
| CC(C)(N)CNc1nc(-c2cc(Cl)cc(Cl)c2)nc(C(Cl)(Cl)Cl)n1 [Compound 195] | 3% | 6 ng/mL | 6 ng/mL | 3 ng/mL | 5/5 | Cures; (160 × 3) 5/5 Cures | 2/5 | – | – | – | – | – |
| CC(C)(N)CNc1nc(-c2cccc(C(F)(F)F)c2)nc(C(Cl)(Cl)Cl)n1 [Compound 214] | 42% | 11 ng/mL | 19 ng/mL | 10 ng/mL | 5/5 | – | 2/5 | – | – | – | – | – |
| ClC(Cl)(Cl)c1nc(Nc2ccncc2)nc(-c2ccc3ccccc3c2)n1 [Compound 235] | – | 8 ng/mL | 14 ng/mL | 10 ng/mL | (80 × 3) Suppressive | – | – | – | – | – | – | – |
| NC1(CNc2nc(-c3ccccc3)nc(C(Cl)(Cl)Cl)n2)CCOCC1 [Compound 313] | – | 2 ng/mL | 7 ng/mL | 14 ng/mL | (80 × 3) 1/5 Cures | – | – | – | – | – | – | – |
| CC1(C)CC(Nc2nc(-c3ccccc3)nc(C(Cl)(Cl)Cl)n2)CC(C)(C)N1 [Compound 320] | – | 2 ng/mL | 11 ng/mL | 20 ng/mL | 4/4 | – | 1/5 | – | – | – | – | – |
| CC(C)CN1CCC(Nc2nc(-c3ccc(C(C)(C)C)cc3)nc(C(Cl)(Cl)Cl)n2)CC1 [Compound 694, CC(C)CN1CCC(CC1)NC1═NC(═NC(═N1)C(Cl)(Cl)Cl)C1═CC═C(C═C1)C(C)(C)C] | – | 23 ng/mL | 24 ng/mL | 37 ng/mL | (80 × 3) Suppressive | – | – | – | – | – | – | – |
| CCN(CC)CC(C)Nc1nc(Nc2ccc(Cl)c(Cl)c2)nc(n1)C(Cl)(Cl)Cl [Compound 642] | – | – | – | – | – | – | – | 76% | 3 ng/mL | 5 ng/mL | 13 ng/mL | – |
| CN1CCN(CC1)c2ccc(Nc3nc(NCCN4CCCC4)nc(n3)C(Cl)(Cl)Cl)cc2 [Compound 733] | – | 36 ng/mL | 117 ng/mL | 87 ng/mL | – | – | – | – | – | – | – | 55% |
| CN(C)CCCNc1nc(Nc2ccc(Cl)c(Cl)c2)nc(n1)C(Cl)(Cl)Cl [Compound 637] | – | – | – | – | – | – | – | 103% | 13 ng/mL | 17 ng/mL | 20 ng/mL | – |
| COc1ccc(cc1)c2nc(nc(n2)C(Cl)(Cl)Cl)N3CC4CC3CN4 [Compound 718] | – | 77.35 ng/mL | 278.6 ng/mL | 139.2 ng/mL | – | – | – | – | – | – | – | 23.5% |
| Cc1cc(CNc2nc(nc(n2)C(Cl)(Cl)Cl)c3ccc(Cl)c(Cl)c3)n(C)n1 [Compound 708] | – | 75.2 ng/mL | 319.7 ng/mL | 221 ng/mL | – | – | – | – | – | – | – | 12.2% |
| ClC(C1═NC(NCCO)═NC(C2═CC(C(F)(F)F)═CC═C2)═N1)(Cl)Cl [Compound 647] | – | – | – | – | – | – | – | 100% | 23 ng/mL | 35 ng/mL | 39 ng/mL | – |
| ClC(Cl)(Cl)c1nc(nc(n1)c2ccccc2)N3CC4CC3CN4 [Compound 720] | – | 35 ng/mL | 56 ng/mL | 89 ng/mL | – | – | – | – | – | – | – | 84% |
| NC1(CNC2═NC(═NC(═N2)C2═CC═C(C═C2)C(Cl)(Cl)Cl)C(Cl)(Cl)Cl)CCCCC1 [Compound 666] | – | 2 ng/mL | 3 ng/mL | 5 ng/mL | (80 × 3) 2/4 Cures | – | – | – | – | – | – | – |
| tert-butyl 5-(4-(4-chlorophenyl)-6-(trichloromethyl)-1,3,5-triazin-2-yl)-2,5-diazabicyclo[2.2.1]heptane-2-carboxylate [Example 6] | 96% | 26 ng/mL | 33 ng/mL | 44 ng/mL | – | – | – | – | – | – | – | – |
